This passage reports GI50 and TGI results from PubChem BioAssay (NCI).

As usually defined, the GI50 is the concentration that inhibits growth by half. One may read the TGI as the concentration giving total growth inhibition. Read a high TGI as less potent growth arrest.

Among the test systems are RPMI-8226 leukemia; SK-MEL-2 melanoma; RXF 393 renal; NCI-H23 lung; UO-31 renal; UACC-62 melanoma; OVCAR-8 ovarian; MALME-3M melanoma; CCRF-CEM leukemia; OVCAR-4 ovarian.
Holding throughout (assay): DTP human tumour cell line panel, 48 h

Molecules are shown by their SMILES.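 The compound was tested at five concentrations on cells cultured in 96-well plates, with a 48-hour exposure period. Abbreviation: GI50, concentration required for 50% inhibition of growth. TGI is the concentration that stops growth completely.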

In the case of `N.N.NCCCCN.O=C([O-])C1(C(=O)[O-])CCC1.O=C([O-])C1(C(=O)[O-])CCC1.[Pt+4].[Pt+4]`, the GI50 in the assay with RPMI-8226 leukemia is over 100 µM; in the assay on SK-MEL-2 melanoma, over 100 µM; with RXF 393 renal, over 100 µM; with NCI-H23 lung it was 78.6 µM; in the assay with UO-31 renal, over 100 µM; in the assay with UACC-62 melanoma, 82.2 µM. The GI50 is over 100 µM in the assay on OVCAR-8 ovarian, over 100 µM in the assay with MALME-3M melanoma, 80.6 µM in the assay with CCRF-CEM leukemia and over 100 µM in the assay on OVCAR-4 ovarian. Also, the TGI in the assay with RPMI-8226 leukemia, in the assay on SK-MEL-2 melanoma, with RXF 393 renal, in the assay on NCI-H23 lung, in the assay on UO-31 renal and with UACC-62 melanoma was over 100 µM in each case. The TGI in the assay on OVCAR-8 ovarian, in the assay with MALME-3M melanoma, in the assay with CCRF-CEM leukemia and in the assay with OVCAR-4 ovarian was over 100 µM each time.
As for `COc1cc(/C=C2\COc3ccc(O)c(O)c3C2=O)cc(OC)c1`, the GI50 in the assay with RPMI-8226 leukemia was 0.558 µM; in the assay with SK-MEL-2 melanoma it was 1.93 µM; with RXF 393 renal, 1.47 µM; in the assay with NCI-H23 lung, 2.36 µM; in the assay with UO-31 renal it was 1.02 µM; with UACC-62 melanoma it was 1.42 µM. Besides, the GI50 with OVCAR-8 ovarian is 0.944 µM; in the assay on MALME-3M melanoma it was 1.82 µM; in the assay on CCRF-CEM leukemia, 0.505 µM; in the assay on OVCAR-4 ovarian, 2.2 µM. Also, the TGI with RPMI-8226 leukemia was determined as 4.17 µM; with SK-MEL-2 melanoma, 5.23 µM; with RXF 393 renal, 3.01 µM; in the assay on NCI-H23 lung, 7.02 µM; with UO-31 renal, 2.29 µM; with UACC-62 melanoma, 3.57 µM. Moreover, the TGI in the assay with OVCAR-8 ovarian was 18.3 µM; in the assay on MALME-3M melanoma, 6.08 µM; in the assay on CCRF-CEM leukemia, over 100 µM; in the assay on OVCAR-4 ovarian, 14.2 µM.
As to `NCCNC(=S)S`, the TGI is 58.8 µM in the assay with RPMI-8226 leukemia; over 100 µM in the assay with SK-MEL-2 melanoma; over 100 µM with RXF 393 renal; over 100 µM in the assay on NCI-H23 lung; over 100 µM with UO-31 renal; over 100 µM with UACC-62 melanoma. Moreover, the TGI in the assay on OVCAR-8 ovarian was over 100 µM; in the assay on MALME-3M melanoma it was 30 µM; with CCRF-CEM leukemia, 90.6 µM; with OVCAR-4 ovarian, over 100 µM.
Take `N#Cc1ccnc(N2C(=O)CC[C@H]2C(=O)N(c2cncc(F)c2)[C@H](C(=O)NC2CC(F)(F)C2)c2ccccc2Cl)c1`: the GI50 was 97.3 µM in the assay on RPMI-8226 leukemia; over 100 µM in the assay with SK-MEL-2 melanoma; over 100 µM with RXF 393 renal; over 100 µM with NCI-H23 lung; 18.3 µM with UO-31 renal; 41.2 µM with UACC-62 melanoma. The GI50 was over 100 µM in the assay on OVCAR-8 ovarian, over 100 µM with MALME-3M melanoma, over 100 µM with CCRF-CEM leukemia and 39.1 µM in the assay on OVCAR-4 ovarian. The TGI with RPMI-8226 leukemia, in the assay on SK-MEL-2 melanoma, with RXF 393 renal, in the assay on NCI-H23 lung, in the assay on UO-31 renal and in the assay with UACC-62 melanoma was over 100 µM each time. In addition, the TGI in the assay on OVCAR-8 ovarian, with MALME-3M melanoma, in the assay on CCRF-CEM leukemia and in the assay on OVCAR-4 ovarian was over 100 µM throughout.
For the compound `CCOC(=O)c1sc(Nc2ccc(Cl)cc2)nc1C`, the GI50 is 1.83 µM in the assay on RPMI-8226 leukemia; 2.1 µM with SK-MEL-2 melanoma; 2.11 µM in the assay on RXF 393 renal; 1.5 µM with NCI-H23 lung; 1.15 µM in the assay with UO-31 renal; 1.17 µM in the assay with UACC-62 melanoma. For the same compound, the GI50 with OVCAR-8 ovarian is 2.89 µM; in the assay with MALME-3M melanoma, 1.61 µM; in the assay on CCRF-CEM leukemia, 2.64 µM; in the assay on OVCAR-4 ovarian, 2.04 µM. Also, the TGI with RPMI-8226 leukemia turned out to be 5.65 µM; with SK-MEL-2 melanoma, 4.2 µM; in the assay on RXF 393 renal it was 4.75 µM; in the assay with NCI-H23 lung, 3.56 µM; in the assay with UO-31 renal it was 2.5 µM; with UACC-62 melanoma it was 2.71 µM. The TGI in the assay on OVCAR-8 ovarian stood at 7.73 µM; with MALME-3M melanoma, 3.59 µM; in the assay with CCRF-CEM leukemia it was 9.37 µM; in the assay with OVCAR-4 ovarian, 19 µM.
Take `CCCCCCCC[N+](C)(CCCCCCCC)CCCCCCCC`: the GI50 in the assay with RPMI-8226 leukemia is 0.0463 µM; with SK-MEL-2 melanoma, 0.356 µM; in the assay on RXF 393 renal it was 0.39 µM; in the assay with NCI-H23 lung it was 0.267 µM; in the assay with UO-31 renal it was 0.465 µM; in the assay on UACC-62 melanoma, 0.302 µM. The GI50 with OVCAR-8 ovarian is 0.411 µM; in the assay on MALME-3M melanoma it was 0.224 µM; in the assay with CCRF-CEM leukemia it was 0.189 µM; with OVCAR-4 ovarian, 0.371 µM. The TGI turned out to be 0.242 µM in the assay with RPMI-8226 leukemia; 8.81 µM with SK-MEL-2 melanoma; 1.49 µM with RXF 393 renal; 1.13 µM in the assay on NCI-H23 lung; 1.62 µM in the assay with UO-31 renal; 1.32 µM in the assay with UACC-62 melanoma. Moreover, the concentration for total growth inhibition (TGI) in the assay with OVCAR-8 ovarian was 1.46 µM; in the assay on MALME-3M melanoma, 0.713 µM; in the assay with CCRF-CEM leukemia it was 0.525 µM; in the assay with OVCAR-4 ovarian, 1.67 µM.
As for `C[C@@H]1C=C2C(=O)O[C@@H]3CC[C@H](C1)[C@]23O`, the GI50 is 2.93 µM with RPMI-8226 leukemia; 4.33 µM in the assay with NCI-H23 lung; 3.74 µM in the assay on UO-31 renal; 4.78 µM in the assay with UACC-62 melanoma; 4.04 µM in the assay on OVCAR-8 ovarian; 4.18 µM in the assay with MALME-3M melanoma. Besides, the GI50 with CCRF-CEM leukemia is 2.66 µM; in the assay on OVCAR-4 ovarian, 5.45 µM. Besides, the TGI in the assay with RPMI-8226 leukemia worked out at 10.7 µM; with SK-MEL-2 melanoma it was 11.4 µM; in the assay with RXF 393 renal it was 7.97 µM; in the assay on NCI-H23 lung it was 23 µM; in the assay with UO-31 renal it was 16.7 µM; with UACC-62 melanoma, 19.6 µM. For the same compound, the TGI is 28.6 µM in the assay on OVCAR-8 ovarian, 23.3 µM in the assay on MALME-3M melanoma, 11.5 µM in the assay on CCRF-CEM leukemia and 45.3 µM with OVCAR-4 ovarian.
For the compound `Cc1ccc(C)c(-c2csc(Nc3ccc(C)c(C)c3)n2)c1`, the GI50 is over 100 µM in the assay on RPMI-8226 leukemia; over 100 µM in the assay with SK-MEL-2 melanoma; 24.2 µM in the assay with RXF 393 renal; 65.7 µM in the assay with NCI-H23 lung; over 100 µM in the assay on UO-31 renal; over 100 µM with UACC-62 melanoma. Moreover, the GI50 in the assay on OVCAR-8 ovarian is 74.7 µM; in the assay on MALME-3M melanoma, over 100 µM; in the assay on CCRF-CEM leukemia it was over 100 µM; with OVCAR-4 ovarian, 48.3 µM. Moreover, the TGI in the assay with RPMI-8226 leukemia, with SK-MEL-2 melanoma, in the assay with RXF 393 renal, with NCI-H23 lung, in the assay with UO-31 renal and in the assay with UACC-62 melanoma was over 100 µM throughout. The TGI in the assay on OVCAR-8 ovarian, in the assay with MALME-3M melanoma, with CCRF-CEM leukemia and in the assay on OVCAR-4 ovarian was over 100 µM each time.
